Data published in patent publication US9284423B2, “Crosslinkable composition crosslinkable by real michael addition (RMA) reaction” (NUPLEX RESINS B.V., priority 2011, dated 2016).

Experiments:
[1] = Determination of Michael addition reactivity (Example 12): loss of X-H component in butyl acrylate/methanol at room temperature, by back-titration (GC for dimethylmalonate); assay type: physicochemical; conditions: for Relative conversion rates (relative Michael addition reactivity: initial increase in % conversion, per minute): with strong base, same method as for succinimide; for Succinimide remaining (%): strong base (tetrabutylammonium hydroxide) added, % relative to theoretical level
Procedure: Subsequently, the concentration of succinimide is determined as a function of time by taking samples, neutralizing with a known excess of HCl in water, and backtitration with a KOH solution. […] Succinimide concentration is expressed as % relative to the theoretical level based on used amounts.

[2] = pKa defined in aqueous environment; cited from earlier work
[3] = butyl acrylate/methanol, room temperature

Row | Structure (SMILES) | Relative conversion rates (relative Michael addition reactivity: initial increase in % conversion, per minute) [1, 3] | pKa [2] | also measured
1 | c1nc[nH]n1 [1,2,4-triazole] | 0.91 % conversion, per minute |  | 
2 | CC1(C)NC(=O)NC1=O [5,5-dimethylhydantoin] | 0.03 % conversion, per minute | 10.2 | 
3 | c1ccc2[nH]nnc2c1 [benzotriazole] | 0.29 % conversion, per minute | 8.2 | 
4 | CCOC(=O)CC(=O)OCC [diethylmalonate] |  | 13.0 | 
5 | O=C1Nc2ccccc2C1=O [isatine] |  | 10.3 | 
6 | C[N+](=O)[O-] [nitromethane] |  | 10.2 | 
7 | O=C1CCC(=O)N1 [succinimide] | 0.33 % conversion, per minute |  | Succinimide acidic protons consumed ([1]; in about an hour, [succinimide]/[base]=5): 25%; Succinimide remaining (%) ([1]; time 3 min, [succinimide]/[base]=5, butyl acrylate/methanol, room temperature): 99%; Succinimide remaining (%) ([1]; time 30 min, [succinimide]/[base]=5, butyl acrylate/methanol, room temperature): 87%; Succinimide remaining (%) ([1]; time 60 min, [succinimide]/[base]=5, butyl acrylate/methanol, room temperature): 77%; Succinimide remaining (%) ([1]; time 120 min, [succinimide]/[base]=5, butyl acrylate/methanol, room temperature): 60%; Succinimide remaining (%) ([1]; time 180 min, [succinimide]/[base]=5, butyl acrylate/methanol, room temperature): 48%; Loss of succinimide N-H without base initiation ([1]; without base, butyl acrylate/methanol, room temperature, two weeks): no significant loss
8 | O=c1cc[nH]c(=O)[nH]1 [uracil] |  | 9.9 | 
